{
  "source": "patent US20250288645A1",
  "about": "“USE OF GsMTx4 AND GsMTx4 CONJUGATES TO IMPROVE RECOVERY FROM JOINT INJURY” (priority 2023, published 2025)",
  "key": {"Piezo1": {"tested_on": "Piezo1", "assay": "Bilateral ACL-injury mouse model: Piezo1 labeling (immunofluorescence)", "format": "in vivo", "details": "ACL-I mice, 3 weeks post-ACL-I, versus saline-treated ACL-I mice", "description": "(§1) Some of the studies reported below involved a murine model of animals which were subjected to trauma by injuring an ACL (as an exemplar of injury to any of the four knee ligaments). Without wishing to be bound by theory, it is believed that injury to the ACL changes the mechanical loading on the joint, promoting imbalanced metabolism in articular cartilage, and promoting the development of post-traumatic OA, or “PTOA.” Animals were divided into four cohorts: the first group, the controls, were not subjected to trauma, the second group underwent bilateral ACL injury, but no further treatment, the third group underwent bilateral ACL injury, and was then administered saline solution at days 3, 10 and 17 post-injury, and the fourth group underwent bilateral ACL injury, and was then administered GsMTx4 peptide at days 3, 10 and 17 post-injury. The animals were evaluated by gait analysis, a cell vulnerability assay, and a histological evaluation/immunofluorescence assay. In one aspect, the assays compared the expression of Piezo1 and Piezo2 in chondrocytes from injured joints, from uninjured controls, and from injured joints injured and then treated with GsMTx4 and from joints that were injured and then treated only with saline solution. The study also looked at calcitonin gene-related peptide (“CGRP”)-containing (“CGRP^+”) nerve endings. […]"}, "mice": {"tested_on": "mice", "assay": "Gait analysis after bilateral ACL injury", "format": "in vivo, mouse", "details": "weekly subcutaneous injections, after 3 weeks", "description": "This Example discusses studies in which mice were first divided into three groups: Group 1, control animals, were not injured, but were injected with GsMTx4, Group 2 mice were given a bilateral ACL injury in their hind legs, and then given weekly subcutaneous injections of saline, and (3) Group 3 mice were given a bilateral ACL injury in their hind legs, and then given weekly subcutaneous injections of GsMTx4.\nAfter 3 weeks, the gait of the animals in each group was studied for the following metrics: hind paw stride length, hind paw average speed, hind paw swing speed, and step cycle."}, "Piezo2": {"tested_on": "Piezo2", "assay": "Bilateral ACL-injury mouse model: Piezo2 expression in CGRP+ pain nerves", "format": "in vivo", "details": "ACL-I mice, GsMTx4 post-injury, versus saline-treated ACL-I mice", "description": "as §1"}, "chondrocytes": {"tested_on": "chondrocytes", "assay": "Massive rotator cuff tear mouse model: chondrocyte mechano-vulnerability", "format": "in vivo", "details": "rotator cuff injury, subcutaneous injection; versus contralateral control joint and saline-injected animals", "description": "Ethical approval was obtained from the appropriate institutional committee Humeri were harvested from wild-type 12-22 week old C57Bl/6 male and female mice. Each specimen was placed in calcium imaging buffer with 2 mM calcium chloride and subsequently incubated with 10 μM calcein-AM for 30 minutes at 37° C. To indicate intracellular esterase activity of living cells, each specimen was incubated with 10 μM yoda1, a Piezo1-specific agonist, 5 nM GSK101, a TRPV4-agonist, or control (DMSO 0.25%, n=7-10/group) in calcium imaging buffer for 15 minutes. Specimens were then incubated with 1.5 nM ethidium homodimer-1 for 3 minutes to indicate loss of plasma membrane integrity in dead cells. The specimen was then arranged in a custom 3-D printed holding device such that the chondrocytes within the apex of sphericity of the humeral head were facing the glass well of a dish to be imaged on an inverted confocal microscope. […] A custom MATLAB image processing algorithm was developed to quantify cell viability. […] Then, watershed segmentation, distance transform, and centroid approximation algorithms were created and applied to segment and quantify individual cells based on intensity values. This facilitated the cell counting process, allowed quantification of the total cell area, and allowed adjustment of the region of interest between before- and after-impact micrographs. […]"}, "C57BL/6 mice": {"tested_on": "C57BL/6 mice", "assay": "Bilateral ACL-injury mouse model: knee histology, OARSI score", "format": "in vivo", "description": "Some of the studies reported below involved a murine model of animals which were subjected to trauma by injuring an ACL (as an exemplar of injury to any of the four knee ligaments). Without wishing to be bound by theory, it is believed that injury to the ACL changes the mechanical loading on the joint, promoting imbalanced metabolism in articular cartilage, and promoting the development of post-traumatic OA, or “PTOA.” Animals were divided into four cohorts: the first group, the controls, were not subjected to trauma, the second group underwent bilateral ACL injury, but no further treatment, the third group underwent bilateral ACL injury, and was then administered saline solution at days 3, 10 and 17 post-injury, and the fourth group underwent bilateral ACL injury, and was then administered GsMTx4 peptide at days 3, 10 and 17 post-injury. The animals were evaluated by gait analysis, a cell vulnerability assay, and a histological evaluation/immunofluorescence assay. In one aspect, the assays compared the expression of Piezo1 and Piezo2 in chondrocytes from injured joints, from uninjured controls, and from injured joints injured and then treated with GsMTx4 and from joints that were injured and then treated only with saline solution. The study also looked at calcitonin gene-related peptide (“CGRP”)-containing (“CGRP^+”) nerve endings. CGRP^+ nerves have been identified as principal coordinators of thermal and mechanical sensitivity in various pain models. See, e.g., Powell, et al., Nat Commun 12, 5812 (2021); doi.org/10.1038/s41467-021-26100-6.\nExperiments were performed in a non-invasive ACL-injury mouse model. […] Both male and female mice were used in the four groups and results were tracked by gender as well as by group.\nAnimals in the ACL-injury groups were provided with buprenorphine as an analgesic, placed under anesthesia by isoflurane inhalation, and had the injuries induced with a custom-built strain gauge-instrumented device by applying axial force along the femoral shaft until a force drop was felt and a distinct “pop” sound was heard. […]"}},
  "note": "Entries after “also recorded” stand apart in the source; their conditions may differ. No end group written: not given here.",
  "data": [
    {"substance": "GsMTx4 (GCLEFWWKCNPNDDKCCRPKLKCSKLFKLCNFSF-NH2; ends and bridges not checked; listed as Grammostola spatulata)", "values": [
      {"measurement": "Piezo1-labeling in chondrocytes and nerves in subchondral bones", "setting": "Piezo1", "result": "reduced Piezo1-labeling in chondrocytes and nerves in subchondral bones"},
      {"measurement": "gait (hind paw stride length, hind paw average speed, hind paw swing speed, step cycle; FIG. 3)", "setting": "mice", "result": "the same or almost the same as that of mice that had not had an ACL injured"},
      {"measurement": "Piezo2 expression in CGRP^+ pain nerves", "setting": "Piezo2", "result": "decreased Piezo2 expression in CGRP^+ pain nerves"},
      {"measurement": "chondrocyte vulnerability", "setting": "chondrocytes", "result": "reduction in chondrocyte vulnerability"},
      {"measurement": "OA severity (OARSI score)", "setting": "C57BL/6 mice; ACL-I mice, GsMTx4 at days 3, 10, 17 post-injury, 3 weeks post-ACL-I, versus saline-treated ACL-I mice", "result": "reduced OARSI score; also recorded: decreased OA degrees significantly"},
      {"measurement": "combined OARSI score for the femur and the tibia (FIG. 2B)", "setting": "C57BL/6 mice; bilateral ACL injury, subcutaneous injection, versus not treated or saline-treated animals", "result": "much lower OARSI score"},
      {"measurement": "cartilage on femur and tibia (histology, FIG. 2A)", "setting": "C57BL/6 mice; bilateral ACL injury, versus saline-injected mouse (cartilage severely eroded and disrupted)", "result": "still a layer of cartilage almost all of the femur and tibial surface"}
    ]}
  ]
}
